From PubChem BioAssay (NCI) come the findings set out here.

SMILES strings stand for the structures. Several values for one entry are separate records, joined by “and”; a condition that tells them apart may be missing. Equal entries are not always repeated.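 Assay format: 96-well plates, 48-hour exposure. GI50 is the concentration that inhibits growth by half. At the TGI there is no net growth.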

Among the test systems are ACHN renal; BT-549 breast; COLO 205 colon; EKVX NSCLC; MALME-3M melanoma; PC-3 prostate; RPMI-8226 leukemia; SK-MEL-5 melanoma; SNB-75 CNS; SR leukemia.
Assay in all cases: NCI tumour cell line growth inhibition, 48 h

In the case of `C/C(=N\NC(=S)N1CCN(c2ccccn2)CC1)c1ncccn1`, the GI50 was 0.0871 µM with ACHN renal; 0.0936 µM in the experiment on BT-549 breast; less than 0.0245 µM in the experiment on COLO 205 colon; 0.0494 µM with EKVX NSCLC; 0.55 µM in the experiment on MALME-3M melanoma; 0.0298 µM with PC-3 prostate. Also, the GI50 in the experiment on RPMI-8226 leukemia was less than 0.0205 µM; in the experiment on SK-MEL-5 melanoma, 0.269 µM; in the experiment on SNB-75 CNS, 4.48 µM; in the experiment on SR leukemia, 0.0622 µM. For the same molecule, the TGI in the experiment on ACHN renal was 12.1 µM; in the experiment with BT-549 breast, 18.8 µM; in the experiment with EKVX NSCLC it was 5.2 µM and 12.8 µM; with MALME-3M melanoma, 5.93 µM and 18.3 µM; in the experiment on PC-3 prostate, 15.9 µM; with RPMI-8226 leukemia it was 2.94 µM and 12.1 µM. For the same molecule, the TGI in the experiment with SK-MEL-5 melanoma was 3.2 µM and 14.9 µM; with SNB-75 CNS, 20.3 µM; with SR leukemia it was 12.3 µM.

Regarding `c1ccc(C2CCCCC2)c(OCCCCCN2CCNCC2)c1`, the GI50 in the experiment with ACHN renal is 3.45 µM; in the experiment on BT-549 breast it was 7.38 µM; with COLO 205 colon, 1.45 µM; with EKVX NSCLC, 4.07 µM; in the experiment on MALME-3M melanoma, 1.85 µM; in the experiment with PC-3 prostate, 3.19 µM. Moreover, the GI50 in the experiment on RPMI-8226 leukemia was 1.69 µM; in the experiment with SK-MEL-5 melanoma, 1.45 µM; in the experiment on SNB-75 CNS, 1.32 µM; in the experiment on SR leukemia it was 0.995 µM. For the same molecule, the TGI stood at 13.2 µM with ACHN renal; 37.9 µM in the experiment on BT-549 breast; 3.31 µM in the experiment on COLO 205 colon; 19.9 µM in the experiment with EKVX NSCLC; 3.57 µM in the experiment with MALME-3M melanoma; 18.4 µM in the experiment on PC-3 prostate. In addition, the TGI in the experiment on RPMI-8226 leukemia came to 4.75 µM; with SK-MEL-5 melanoma it was 2.81 µM; in the experiment on SNB-75 CNS it was 3.54 µM; in the experiment on SR leukemia, 4.56 µM.

Regarding `C=C1C(=O)O[C@H]2[C@H]1CC/C(COC(=O)NCc1c[nH]c3ccc(F)cc13)=C\CC[C@@]1(C)O[C@@H]21`, the GI50 is 1.36 µM with ACHN renal; 1.15 µM in the experiment with BT-549 breast; 1.39 µM in the experiment on COLO 205 colon; 1.89 µM in the experiment on EKVX NSCLC; 1.66 µM in the experiment on MALME-3M melanoma; 1.48 µM in the experiment on PC-3 prostate. Also, the GI50 with RPMI-8226 leukemia is 0.456 µM; in the experiment with SK-MEL-5 melanoma it was 1.69 µM; in the experiment on SNB-75 CNS, 1.33 µM; in the experiment with SR leukemia, 0.266 µM. The TGI in the experiment on ACHN renal amounted to 2.67 µM; in the experiment with BT-549 breast, 2.5 µM; in the experiment on COLO 205 colon, 2.95 µM; in the experiment with EKVX NSCLC, 4.51 µM; in the experiment with MALME-3M melanoma, 3.32 µM; in the experiment on PC-3 prostate, 3.05 µM. Also, the TGI in the experiment with RPMI-8226 leukemia worked out at 2.27 µM; in the experiment on SK-MEL-5 melanoma it was 3.11 µM; with SNB-75 CNS it was 2.76 µM; in the experiment on SR leukemia it was 5.85 µM.

Turning to `COC1=C(OC)C(=O)C(CCCCCCCCCCO)=C(C)C1=O`, the GI50 in the experiment on ACHN renal was 3.35 µM; with BT-549 breast, 12.7 µM; in the experiment with COLO 205 colon, 19.6 µM; in the experiment on EKVX NSCLC, 5.89 µM; with MALME-3M melanoma, 7.47 µM; in the experiment on PC-3 prostate it was 3.76 µM. Also, the GI50 in the experiment on RPMI-8226 leukemia was 4 µM; in the experiment with SK-MEL-5 melanoma, 5.92 µM; in the experiment with SNB-75 CNS, 12.1 µM; in the experiment on SR leukemia, 3.18 µM. The TGI in the experiment with ACHN renal was determined as 11.2 µM; in the experiment with BT-549 breast it was 25.9 µM; in the experiment on COLO 205 colon, 34 µM; with EKVX NSCLC, 21.8 µM; in the experiment with MALME-3M melanoma it was 21.8 µM; in the experiment with PC-3 prostate, 15.6 µM. In addition, the TGI in the experiment with RPMI-8226 leukemia was found to be 29.5 µM; in the experiment with SK-MEL-5 melanoma, 19.1 µM; in the experiment on SNB-75 CNS, 28 µM; with SR leukemia, 19 µM.

Turning to `COc1ccc(-c2[nH]c3ccccc3c2/C=C(\C#N)S(=O)(=O)c2ccccc2)cc1`, the GI50 is 1.91 µM in the experiment on ACHN renal; 1.63 µM in the experiment on BT-549 breast; 0.253 µM in the experiment with COLO 205 colon; 1.25 µM in the experiment with EKVX NSCLC; 1.22 µM with MALME-3M melanoma; 0.533 µM in the experiment with PC-3 prostate. Also, the GI50 is 2.14 µM with RPMI-8226 leukemia, 0.343 µM with SK-MEL-5 melanoma, 0.375 µM in the experiment on SNB-75 CNS and 0.344 µM in the experiment on SR leukemia. Also, the TGI in the experiment with ACHN renal is more than 100 µM; in the experiment with BT-549 breast it was more than 76 µM; in the experiment on COLO 205 colon it was 0.67 µM; in the experiment with EKVX NSCLC, more than 100 µM; in the experiment with MALME-3M melanoma, more than 82 µM; in the experiment with PC-3 prostate, more than 68.8 µM. The TGI was more than 100 µM with RPMI-8226 leukemia, 2.73 µM in the experiment with SK-MEL-5 melanoma, more than 25.9 µM in the experiment on SNB-75 CNS and 4.9 µM with SR leukemia.

For the molecule `N#Cc1c(NC(=O)c2ccccc2F)sc2c1CCCC2`, the GI50 was more than 25 µM with ACHN renal; more than 20.3 µM in the experiment with BT-549 breast; 22.2 µM in the experiment with COLO 205 colon; more than 25 µM in the experiment with EKVX NSCLC; more than 25 µM with MALME-3M melanoma; more than 25 µM in the experiment with PC-3 prostate. The GI50 in the experiment on RPMI-8226 leukemia is more than 25 µM; in the experiment on SK-MEL-5 melanoma it was more than 22 µM; in the experiment on SNB-75 CNS it was more than 21.7 µM; with SR leukemia, more than 25 µM. Also, the TGI in the experiment on ACHN renal, in the experiment with BT-549 breast, in the experiment with COLO 205 colon, in the experiment with EKVX NSCLC, in the experiment with MALME-3M melanoma and in the experiment on PC-3 prostate was more than 25 µM throughout. Moreover, the TGI with RPMI-8226 leukemia, with SK-MEL-5 melanoma, with SNB-75 CNS and in the experiment with SR leukemia was more than 25 µM in each case.

As for `N#Cc1cc2c(cc1Cl)Sc1nnc(Nc3cccc4ccccc34)n1S2(=O)=O`, the GI50 in the experiment on ACHN renal is 6.34 µM; in the experiment on BT-549 breast it was 14.6 µM; in the experiment with COLO 205 colon, 2.34 µM; with EKVX NSCLC it was 20.2 µM; with MALME-3M melanoma, 2.03 µM; in the experiment with PC-3 prostate, 4.75 µM. Also, the GI50 with RPMI-8226 leukemia was 2.66 µM; in the experiment on SK-MEL-5 melanoma, 3.95 µM; in the experiment with SNB-75 CNS, 6.43 µM; in the experiment with SR leukemia it was 2.21 µM. The TGI amounted to 19.2 µM in the experiment on ACHN renal; 28.9 µM in the experiment with BT-549 breast; 4.52 µM in the experiment on COLO 205 colon; 39.6 µM with EKVX NSCLC; 5.75 µM with MALME-3M melanoma; 18 µM with PC-3 prostate. The TGI in the experiment with RPMI-8226 leukemia came to 7.77 µM; in the experiment with SK-MEL-5 melanoma, 15.7 µM; in the experiment on SNB-75 CNS, 18.2 µM; in the experiment with SR leukemia, 7.82 µM.

On to `CSC1=Nc2c(c(C)c(-c3ccccc3)n2COC(CO)CO)C2=NC(=O)CN12`, for which the GI50 in the experiment on ACHN renal, in the experiment with BT-549 breast, with COLO 205 colon, with EKVX NSCLC, with MALME-3M melanoma and in the experiment on PC-3 prostate was more than 100 µM each time. In addition, the GI50 in the experiment on RPMI-8226 leukemia is more than 100 µM; in the experiment on SK-MEL-5 melanoma it was more than 100 µM; with SNB-75 CNS, 58.9 µM; in the experiment on SR leukemia, more than 100 µM. The TGI with ACHN renal, with BT-549 breast, in the experiment with COLO 205 colon, in the experiment with EKVX NSCLC, in the experiment on MALME-3M melanoma and in the experiment with PC-3 prostate was more than 100 µM throughout. Besides, the TGI in the experiment on RPMI-8226 leukemia, in the experiment with SK-MEL-5 melanoma, with SNB-75 CNS and with SR leukemia was more than 100 µM each time.

On to `Cc1ccc(S(=O)(=O)NC(=O)OC23COCN2COC3)cc1`, for which the TGI with ACHN renal, in the experiment on BT-549 breast, in the experiment on COLO 205 colon, with EKVX NSCLC, with MALME-3M melanoma and with PC-3 prostate was more than 100 µM each time. The TGI in the experiment with RPMI-8226 leukemia is 73 µM; in the experiment with SK-MEL-5 melanoma it was more than 100 µM; with SNB-75 CNS it was more than 100 µM; in the experiment on SR leukemia, more than 100 µM.

As for `CC1(C)[C@H](O)[C@H](F)C[C@@]2(C)Oc3ccc(C(=O)Nc4ccc5c(c4)NC(=O)C54CCN(CCCCC#N)CC4)cc3C[C@H]12`, the GI50 in the experiment on ACHN renal is 0.961 µM and 5.29 µM; in the experiment on BT-549 breast it was 0.0186 µM; with COLO 205 colon, 1.24 µM and 1.14 µM; in the experiment with EKVX NSCLC, 4.01 µM and 4.25 µM; in the experiment with MALME-3M melanoma, 0.332 µM and 1.04 µM; in the experiment on PC-3 prostate it was 0.0225 µM. In addition, the figures for the GI50 with RPMI-8226 leukemia, in the experiment with SNB-75 CNS and in the experiment with SR leukemia were 0.00262 µM, 0.00679 µM and 0.0106 µM, respectively. Also, the TGI in the experiment with ACHN renal is 23.2 µM; with BT-549 breast, 6.31 µM and 8.37 µM; with COLO 205 colon, 3.42 µM and 3.63 µM; with EKVX NSCLC, 22.1 µM; with MALME-3M melanoma, 3.1 µM and 3.43 µM; with PC-3 prostate, 2.84 µM and 5.24 µM. Further, the TGI with SK-MEL-5 melanoma is 2.9 µM and 1.55 µM; in the experiment on SNB-75 CNS it was 6.38 µM and 2.2 µM; in the experiment on SR leukemia it was 2.6 µM.

`CC1=NNC(=S)NCCCN2CCN(CCCNC(=S)NN=C(C)C=NNC(=S)NCCCN3CCN(CCCNC(=S)NN=C1)CC3)CC2`: the TGI in the experiment on ACHN renal, with BT-549 breast, in the experiment on COLO 205 colon, with EKVX NSCLC, with MALME-3M melanoma and in the experiment on PC-3 prostate was more than 100 µM each time. The TGI with RPMI-8226 leukemia, with SK-MEL-5 melanoma, with SNB-75 CNS and in the experiment on SR leukemia was more than 100 µM in each case.

With `COc1ccc(C2CC(c3ccc(N(C)C)cc3)=NN2c2ccc(S(N)(=O)=O)cc2)cc1` (configuration not stated), the GI50 with ACHN renal was 3.37 µM; in the experiment on BT-549 breast it was 2.99 µM; in the experiment on COLO 205 colon, 2.46 µM; in the experiment with EKVX NSCLC it was 3.79 µM; in the experiment on MALME-3M melanoma it was 4.12 µM; with PC-3 prostate it was 3.65 µM. Further, the GI50 in the experiment on RPMI-8226 leukemia was 3.26 µM; in the experiment on SK-MEL-5 melanoma it was 1.73 µM; in the experiment on SNB-75 CNS it was 5.42 µM; with SR leukemia it was 3.77 µM. Further, the TGI in the experiment on ACHN renal is more than 100 µM; with BT-549 breast, 8.7 µM; with COLO 205 colon, 5.49 µM; in the experiment on EKVX NSCLC, more than 100 µM; in the experiment on MALME-3M melanoma it was 28.1 µM; with PC-3 prostate it was more than 100 µM. The TGI in the experiment with RPMI-8226 leukemia is 13.2 µM; in the experiment with SK-MEL-5 melanoma, 3.37 µM; in the experiment on SNB-75 CNS, more than 100 µM; in the experiment with SR leukemia, more than 100 µM.
